The values that follow come from patent US7446195B2, “High affinity thiophene-based and furan-based kinase ligands” (Schering Corporation, priority 2005, dated 2008).

One may read the IC50 as the concentration needed to halve the response being measured. High values mean weaker potency, low ones greater potency.

The assay deals with CDK-2 (Homo sapiens, UniProt P24941). The assay can be described thus: CDK-2 inhibition (Table 1; fluorescence polarization displacement assay). In kind it is binding. The following applies: inhibitory effectiveness toward CDK-2. How it is done: The affinity of lead inhibitors binding to CDK-2 and CDK-2/cyclin A were determined by measuring a Ki value using a fluorescence polarization displacement assay. The deacetylated form of compound BMS-250595 was reacted with Alexa Fluor 647 to generate a compound (BMS-Alexa Fluor647) that bound to both proteins and provided a signal for fluorescence polarization displacement. Binding assays were performed in a 384 well Costar NBS coated plate. A total volume of […] contained concentrations of CDK-2 or CDK-2/cyclin A at […], respectively. The concentration of BMS-Alexa Fluor647 was 50 nM. Serial dilutions of compounds were added to 12 wells. The final buffer concentration was 10 mM Hepes, pH 7.5, 150 mM NaCl, and 1 mM DTT. Samples were incubated at room temperature for 15 minutes and then read in an Analyst HT instrument using an excitation and emission wavelength of 580 and 680 nm, respectively. The […] curve fitting tool described by Zhang et al., 2004 (Zhang R., Mayhood T., Lipari P., Wang Y., Durkin D., Syto R., Gesell J., McNemar C., and Windsor W., Analytical Biochemistry 331 (2004) 138-146)
In general terms: Polarisation of emitted light reports the rotation of a fluorescent probe.

Structures are written as SMILES.

Consider `COc1ccc(C(=O)Nc2ccc(C(=O)Nc3ccc(-n4cncn4)cc3)s2)c(C)c1` [Compound 2], for which the IC50 was not above 1000 nM.
In turn, `Cc1cc(N2CCOCC2)ccc1NC(=O)c1ccc(C(=O)Nc2ccc(-n3cncn3)cc2)s1` [Compound 3] returned an IC50 not above 1000 nM.
The compound `Cc1cc(OCCO)ccc1NC(=O)c1ccc(C(=O)Nc2ccc(-n3cncn3)cc2)s1` [Compound 4] yielded a 50% inhibitory concentration (IC50) not above 1000 nM.
Take `COc1ccc(NC(=O)c2ccc(C(=O)Nc3ccc(-n4cncn4)c(F)c3)o2)c(C)c1` [Compound 5]: the IC50 was not above 1000 nM.
In turn, `Cc1cc(N2CCOCC2)ccc1NC(=O)c1ccc(C(=O)Nc2ccc(-n3cncn3)c(F)c2)s1` [Compound 6] came in with an IC50 not above 1000 nM.
`COc1ccc(NC(=O)c2ccc(C(=O)Nc3ccc(-c4nc[nH]n4)c(F)c3)o2)c(C)c1` [Compound 7] returned an IC50 not above 1000 nM.
Turning to `COc1ccc(C(=O)Nc2ccc(C(=O)Nc3ccc(-c4nc[nH]n4)c(F)c3)s2)c(C)c1` [Compound 8], the IC50 was not above 1000 nM.
In the case of `Cc1cc(Cn2ccnc2)ccc1NC(=O)c1ccc(C(=O)Nc2ccc(-n3cncn3)cc2)s1` [Compound 9], the IC50 was not above 1000 nM.
As for `Cc1cc(Cn2ccnc2)ccc1NC(=O)c1ccc(C(=O)Nc2ccc(-n3cncn3)c(F)c2)s1` [Compound 10], the IC50 was not above 1000 nM.
Compound `Cc1cc(OCCN2CCOCC2)ccc1NC(=O)c1ccc(C(=O)Nc2ccc(-n3cncn3)cc2)s1` [Compound 11] returned an IC50 not above 1000 nM.
In turn, `Cc1cc(OCCN2CCN(C)CC2)ccc1NC(=O)c1ccc(C(=O)Nc2ccc(-n3cncn3)cc2)s1` [Compound 12] showed an IC50 not above 1000 nM.
The result for `COc1ccc(NC(=O)c2ccc(C(=O)Nc3ccc(-n4cncn4)cc3)s2)c(C)c1` [Compound 13] reads not above 1000 nM.
Compound `COc1ccc(C(=O)Nc2ccc(C(=O)Nc3ccc(-n4cncn4)c(F)c3)s2)c(C)c1` [Compound 14] yielded an IC50 not above 1000 nM.
`Cc1cc(N[C@H]2CCNC2)ccc1NC(=O)c1ccc(C(=O)Nc2ccc(-n3cncn3)c(F)c2)s1` [Compound 15] had an IC50 not above 1000 nM.
As to `Cc1cc(CN2CCOCC2)ccc1NC(=O)c1ccc(C(=O)Nc2ccc(-n3cncn3)cc2)s1` [Compound 16], the IC50 is not above 1000 nM.
`COc1ccc(NC(=O)c2ccc(C(=O)Nc3ccc(-n4cncn4)c(F)c3)s2)c(C)c1` [Compound 17] had an IC50 not above 1000 nM.
With `O=C(Nc1ccc(-n2cncn2)cc1)c1ccc(C(=O)NC2CCCCC2)o1` [Compound 18], the IC50 is not above 1000 nM.
Turning to `O=C(Nc1ccc(-n2cncn2)c(F)c1)c1ccc(C(=O)Nc2ccccc2Cl)s1` [Compound 19], the IC50 is not above 1000 nM.
`Cc1cc(CN2CCOCC2)ccc1NC(=O)c1ccc(C(=O)Nc2ccc(-n3cncn3)c(F)c2)s1` [Compound 20] yielded an IC50 not above 1000 nM.
Consider `O=C(Nc1ccc(-n2cncn2)cc1)c1ccc(NC(=O)C2CCCCC2)s1` [Compound 21], for which the IC50 was not above 1000 nM.
With `COc1ccc(NC(=O)c2ccc(C(=O)Nc3ccc(-c4nc[nH]n4)c(F)c3)s2)c(C)c1` [Compound 22], the 50% inhibitory concentration (IC50) was not above 1000 nM.
With `Cc1cc(CN2CCN(C)CC2)ccc1NC(=O)c1ccc(C(=O)Nc2ccc(-n3cncn3)c(F)c2)s1` [Compound 23], the IC50 was not above 1000 nM.
The result for `Cc1ccccc1NC(=O)c1ccc(C(=O)Nc2ccc(-n3cncn3)cc2)s1` [Compound 24] reads not above 1000 nM; that for `COc1ccc(NC(=O)c2ccc(C(=O)Nc3ccc(-c4nnc[nH]4)cc3)s2)c(C)c1` [Compound 25], not above 1000 nM.
Compound `COc1ccc(NC(=O)c2ccc(C(=O)Nc3ccc(-n4cncn4)cc3)o2)c(C)c1` [Compound 26] registered an IC50 not above 1000 nM.
The result for `O=C(Nc1ccc(-n2cncn2)c(F)c1)c1ccc(C(=O)NC2CCCCC2)o1` [Compound 27] reads not above 1000 nM; that for `C[C@H](NC(=O)c1ccc(C(=O)Nc2ccc(-n3cncn3)c(F)c2)o1)C1CCCCC1` [Compound 28], not above 1000 nM; that for `Cc1cc(N2CCN(C)CC2)ccc1NC(=O)c1ccc(C(=O)Nc2ccc(-n3cncn3)cc2)s1` [Compound 29], not above 1000 nM.
To `Cc1cc(N2CCNCC2)ccc1NC(=O)c1ccc(C(=O)Nc2ccc(-n3cncn3)cc2)s1` [Compound 30] belongs not above 1000 nM; to `Cc1ccccc1NC(=O)c1ccc(C(=O)Nc2ccc(-n3cncn3)cc2)o1` [Compound 31], not above 1000 nM; to `Cc1cc(CN2CCN(C)CC2)ccc1NC(=O)c1ccc(C(=O)Nc2ccc(-n3cncn3)cc2)s1` [Compound 32], not above 1000 nM.
`Cc1cc(O)ccc1NC(=O)c1ccc(C(=O)Nc2ccc(-n3cncn3)cc2)s1` [Compound 33] showed an IC50 not above 1000 nM.
`Cc1ccccc1C(=O)Nc1ccc(C(=O)Nc2ccc(-n3cncn3)cc2)s1` [Compound 34]: the IC50 is not above 1000 nM.
As to `COc1ccc(NC(=O)c2ccc(C(=O)Nc3ccc(-n4cncn4)cc3)o2)cc1` [Compound 35], the IC50 is not above 1000 nM.
In turn, `Cc1cc(N(C)CCN(C)C)ccc1NC(=O)c1ccc(C(=O)Nc2ccc(-n3cncn3)cc2)s1` [Compound 36] yielded an IC50 not above 1000 nM.
To `O=C(Nc1ccc(-n2cncn2)c(F)c1)c1ccc(C(=O)Nc2ccccc2F)s1` [Compound 37] belongs not above 1000 nM; to `Cc1cc(N[C@H]2CCNC2)ccc1NC(=O)c1ccc(C(=O)Nc2ccc(-n3cncn3)cc2)s1` [Compound 38], not above 1000 nM; to `CN(C(=O)c1ccc(C(=O)Nc2ccc(-n3cncn3)cc2)s1)C1CCCCC1` [Compound 39], not above 1000 nM.
For `O=C(Nc1ccc(C(=O)Nc2ccc(-n3cncn3)cc2)s1)c1ccccc1` [Compound 40], the IC50 is not above 1000 nM.
To `COc1ccc(NC(=O)c2ccc(C(=O)N3CCC(Oc4cnccn4)CC3)s2)c(C)c1` [Compound 41] belongs 1000 to 40000 nM; to `COc1ccc(C(=O)Nc2ccc(C(=O)Nc3ccc(-n4cncn4)cc3)s2)cc1` [Compound 42], 1000 to 40000 nM.
To `C[C@@H](NC(=O)c1ccc(C(=O)Nc2ccc(-n3cncn3)c(F)c2)o1)C1CCCCC1` [Compound 43] belongs 1000 to 40000 nM; to `Cc1cc(NCCN(C)C)ccc1NC(=O)c1ccc(C(=O)Nc2ccc(-n3cncn3)cc2)s1` [Compound 44], 1000 to 40000 nM.
`O=C(Nc1ccccc1)c1ccc(C(=O)Nc2ccc(-n3cncn3)cc2)o1` [Compound 45] yielded an IC50 of 1000 to 40000 nM.
In turn, `O=C(Nc1ccc(-n2cncn2)c(F)c1)c1ccc(C(=O)Nc2ccccc2C(F)(F)F)s1` [Compound 46] had an IC50 of 1000 to 40000 nM.
On to `Cc1cc(CN(C)C)ccc1NC(=O)c1ccc(C(=O)Nc2ccc(-n3cncn3)cc2)s1` [Compound 47], for which the IC50 lay within 1000 to 40000 nM.
The result for `Cc1cc(CN(C)C)ccc1NC(=O)c1ccc(C(=O)Nc2ccc(-n3cncn3)c(F)c2)s1` [Compound 48] reads 1000 to 40000 nM.
The compound `O=C(Nc1ccc(-n2cncn2)c(F)c1)c1ccc(C(=O)N[C@H]2CC[C@H](O)CC2)o1` [Compound 49] registered an IC50 of 1000 to 40000 nM.
`COc1ccc(NC(=O)c2ccc(C(=O)N3CCC(c4ccncc4)C3)s2)c(C)c1` (stereo not drawn) [Compound 50] came in with an IC50 of 1000 to 40000 nM.
To `CNCc1ccc(NC(=O)c2ccc(C(=O)Nc3ccc(-n4cncn4)cc3)s2)c(C)c1` [Compound 51] belongs 1000 to 40000 nM.
As for `O=C(NCCN1CCCC1)c1ccc(C(=O)Nc2ccc(-n3cncn3)cc2)s1` [Compound 52], the IC50 was in the range of 1000 to 40000 nM.
Consider `O=C(Nc1ccc(Cl)cc1)c1ccc(C(=O)Nc2ccc(-n3cncn3)cc2)s1` [Compound 53], for which the IC50 lay in the range of 1000 to 40000 nM.
Compound `O=C(Nc1ccc(-n2cncn2)cc1)c1ccc(C(=O)Nc2cccc(Cl)c2)s1` [Compound 54] came in with an IC50 of 1000 to 40000 nM.
For `Cc1ccsc1CNC(=O)c1ccc(C(=O)Nc2ccc(-n3cncn3)cc2)s1` [Compound 55], the IC50 was 1000 to 40000 nM.
In the case of `O=C(Nc1ccc(-n2cncn2)cc1)c1ccc(C(=O)N[C@H]2CCc3ccccc32)s1` [Compound 56], the IC50 is 1000 to 40000 nM.
For `CC(=O)N1CCC(NC(=O)c2ccc(C(=O)Nc3ccc(-n4cncn4)cc3)s2)CC1` [Compound 57], the IC50 is 1000 to 40000 nM.
In turn, `O=C(Nc1ccc(-n2cncn2)cc1)c1ccc(C(=O)Nc2nc3ccccc3s2)s1` [Compound 58] had an IC50 of 1000 to 40000 nM.
`COc1cccc(NC(=O)c2ccc(C(=O)Nc3ccc(-n4cncn4)cc3)s2)c1OC` [Compound 59] came in with an IC50 of 1000 to 40000 nM.
Compound `O=C(Nc1ccc(-n2cncn2)cc1)c1ccc(C(=O)Nc2nc3c(s2)CCCC3)s1` [Compound 60] displayed an IC50 of 1000 to 40000 nM.
Compound `COc1ccc(NC(=O)c2ccc(C(=O)Nc3ccc(-n4cncn4)cc3)s2)cc1Cl` [Compound 61] gave an IC50 of 1000 to 40000 nM.
The result for `COc1ccc(Cl)cc1NC(=O)c1ccc(C(=O)Nc2ccc(-n3cncn3)cc2)s1` [Compound 62] reads 1000 to 40000 nM.
`O=C(NCc1ccccc1)c1ccc(C(=O)Nc2ccc(-n3cncn3)cc2)s1` [Compound 63] yielded an IC50 of 1000 to 40000 nM.
With `Cn1nc(C2CC2)cc1NC(=O)c1ccc(C(=O)Nc2ccc(-n3cncn3)cc2)s1` [Compound 64], the IC50 fell in the range of 1000 to 40000 nM.
Regarding `COc1ccc(NC(=O)c2ccc(C(=O)Nc3ccc(F)cc3-n3cncn3)s2)c(C)c1` [Compound 65], the IC50 was in the range of 1000 to 40000 nM.
Regarding `Cn1nc(-c2ccccc2)cc1NC(=O)c1ccc(C(=O)Nc2ccc(-n3cncn3)cc2)s1` [Compound 66], the IC50 lay in the range of 1000 to 40000 nM.
Compound `Cc1cc(NC(=O)c2ccc(C(=O)Nc3ccc(-n4cncn4)cc3)s2)n(C)n1` [Compound 67] had an IC50 of 1000 to 40000 nM.
